Laboratory results taken from US20140120060A1, “TREATMENT OF RHEUMATOID ARTHRITIS AND ASTHMA USING PI3 KINASE INHIBITORS” (INFINITY PHARMACEUTICALS, INC., priority 2012, published 2014).

Assays:
PG-PS model of arthritis = assay: Rat mono-articular PG-PS model; assay type: in vivo
Description: Animals are initially randomized into groups based on body weight but any with no ankle swelling following priming are eliminated from the groups to be reactivated. 10/group are retained into the primary treatment groups. The remaining animals are the baseline controls (Group 1).
Rats that have ankle inflammation are allowed to recover for two weeks, and then the swelling is reactivated (day 0) by a tail vein injection of 0.5 ml of 0.4 mg/ml PG-PS. Treatment with the test compounds is given QD the day prior to reactivation on day 0 and then daily.
Animals have caliper measures and paw volumes taken of ankles on day −3 (prior to reactivation on day 0 in the AM) and then on days 1, 2, 3, 4 (2 hrs post-dose) to determine if any anti-inflammatory effects are present in treated rats.
Scoring of Joints: PGPS ankles or knees are given scores of 0-5 for inflammation and bone resorption according to the following criteria: […]

PI3K δ = PI3K δ (Homo sapiens, UniProt O00329); assay: Clinical study in healthy adult subjects: basophil activation (CD63 on CCR3+ basophils); assay type: in vivo; parameters: from tissue; host or cells: blood basophils (CCR3+) of healthy adult subjects
[1] = 13-week repeat-dose safety study in rats; conditions: both sexes, in vivo, oral; rat, Day 91, combined sexes, 25 mg/kg/day; read-out: mean AUC0-24 hr at the NOAEL
Description: The no observed adverse effect level (NOAEL) in the 13-week rat study was 25 mg/kg/day (150 mg/m^2/day) and the NOAEL in the 13-week monkey study was 5 mg/kg/day (60 mg/m^2/day). On Day 91, the mean AUC0-24 hr values for combined sexes at the NOAELs were 14150 ng*h/mL in the rat, and 4015 ng*h/mL in the monkey.

Sequence of PI3K δ (O00329 whole entry): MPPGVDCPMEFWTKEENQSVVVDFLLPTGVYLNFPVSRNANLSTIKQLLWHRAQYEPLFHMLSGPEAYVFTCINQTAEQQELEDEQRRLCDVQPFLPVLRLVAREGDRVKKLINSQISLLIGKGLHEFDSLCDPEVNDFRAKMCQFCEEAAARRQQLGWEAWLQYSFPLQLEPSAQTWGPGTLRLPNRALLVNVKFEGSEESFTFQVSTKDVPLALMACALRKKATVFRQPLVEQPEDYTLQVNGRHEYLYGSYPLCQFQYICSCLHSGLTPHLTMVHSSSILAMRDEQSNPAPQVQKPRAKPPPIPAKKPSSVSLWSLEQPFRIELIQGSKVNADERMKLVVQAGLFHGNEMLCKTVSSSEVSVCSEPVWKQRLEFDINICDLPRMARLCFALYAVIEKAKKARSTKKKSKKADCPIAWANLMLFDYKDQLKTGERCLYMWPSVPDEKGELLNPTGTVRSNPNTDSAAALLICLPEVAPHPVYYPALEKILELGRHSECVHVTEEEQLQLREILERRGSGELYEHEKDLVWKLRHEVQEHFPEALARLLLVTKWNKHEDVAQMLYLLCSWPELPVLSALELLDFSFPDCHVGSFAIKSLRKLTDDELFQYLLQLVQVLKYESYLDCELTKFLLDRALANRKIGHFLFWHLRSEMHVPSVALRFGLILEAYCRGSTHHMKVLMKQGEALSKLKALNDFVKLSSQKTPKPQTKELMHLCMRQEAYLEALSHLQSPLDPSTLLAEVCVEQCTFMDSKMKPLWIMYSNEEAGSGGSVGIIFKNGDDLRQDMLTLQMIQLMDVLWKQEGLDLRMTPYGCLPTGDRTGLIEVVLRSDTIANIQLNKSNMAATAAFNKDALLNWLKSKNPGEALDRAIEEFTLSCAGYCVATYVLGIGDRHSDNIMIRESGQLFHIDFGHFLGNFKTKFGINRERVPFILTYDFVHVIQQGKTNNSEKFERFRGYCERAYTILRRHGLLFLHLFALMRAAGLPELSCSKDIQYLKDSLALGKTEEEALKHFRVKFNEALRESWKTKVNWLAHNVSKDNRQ
Sequence of PI3K δ (P27986 whole entry partner): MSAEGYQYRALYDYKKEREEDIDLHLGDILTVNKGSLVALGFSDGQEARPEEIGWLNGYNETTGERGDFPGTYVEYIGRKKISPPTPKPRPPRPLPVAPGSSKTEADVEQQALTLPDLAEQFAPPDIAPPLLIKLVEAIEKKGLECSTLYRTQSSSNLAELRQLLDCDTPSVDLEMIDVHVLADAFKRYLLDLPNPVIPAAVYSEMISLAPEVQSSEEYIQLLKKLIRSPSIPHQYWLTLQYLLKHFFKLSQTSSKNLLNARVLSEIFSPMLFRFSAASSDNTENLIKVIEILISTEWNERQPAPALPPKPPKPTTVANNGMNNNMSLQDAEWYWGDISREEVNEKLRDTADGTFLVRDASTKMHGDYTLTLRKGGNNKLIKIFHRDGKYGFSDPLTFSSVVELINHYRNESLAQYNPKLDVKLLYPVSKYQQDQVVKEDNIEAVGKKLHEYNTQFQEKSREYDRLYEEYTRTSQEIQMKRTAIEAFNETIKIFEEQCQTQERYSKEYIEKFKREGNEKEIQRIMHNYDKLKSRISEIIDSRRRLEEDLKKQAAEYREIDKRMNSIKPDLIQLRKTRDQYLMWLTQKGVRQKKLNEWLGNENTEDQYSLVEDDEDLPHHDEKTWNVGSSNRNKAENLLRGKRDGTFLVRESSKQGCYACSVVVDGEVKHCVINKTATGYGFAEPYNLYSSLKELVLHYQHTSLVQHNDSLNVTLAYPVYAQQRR

In the case of `C[C@H](Nc1ncnc2[nH]cnc12)c1cc2cccc(Cl)c2c(=O)n1-c1ccccc1` [Compound 292], the “inflammation when reactivated with PG-PS” value (PG-PS model of arthritis; FIG. 14A) was “dose-dependently controlled inflammation”, the “joint pathology in PG-PS model” value (PG-PS model of arthritis; FIG. 14B) was “dose-dependently improved joint pathology” and the “Emax (reduction of basophil activation vs plasma concentration)” value (PI3K δ; FIG. 21) was 85%. For the same compound, the basophil activation (PI3K δ; single and multiple doses, all dose levels, maximum at 1 hr post dose) was “dose-dependent reduction” and the AUC(0-t) [1] was 14200 ng·h/mL.
